These results are taken from ChEMBL document CHEMBL1201862, “PubChem BioAssay data set” (2004).

Some test systems named below: LOX IMVI; MCF7; K562; IGROV-1; HL-60; SN12C; U-251; TK-10; UO-31; A498; SF-539; RXF 393; M14; BT-549; OVCAR-3; HCC 2998; 786-0; MOLT-4; NCI/ADR-RES; CAKI-1.
Holding throughout (test): DTP human tumour cell line panel, 48 h

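How tested: cells in 96-well plates exposed to compound for 48 hours at five concentrations. At the GI50, growth is halved.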 Calls of active or inactive are those of the source. Cut-off read from the data, not from the text of the source: active = GI50 up to about 1.1 µM and inactive = higher. Some results are limits rather than exact numbers.

On to `N#C/C(=C\Nc1ccccn1)C(=O)c1ccco1`, for which the GI50 with LOX IMVI, with MCF7, with K562, in the assay with IGROV-1, in the assay with HL-60 and in the assay on SN12C was > 100 µM (inactive) in each case. The GI50 in the assay with U-251, in the assay on TK-10, with UO-31, in the assay on A498, in the assay with SF-539 and in the assay with RXF 393 was > 100 µM (inactive) in each case. Moreover, the GI50 was > 100 µM (inactive) in the assay with M14; > 100 µM (inactive) in the assay with BT-549; > 100 µM (inactive) with OVCAR-3; > 100 µM (inactive) in the assay with HCC 2998; > 100 µM (inactive) with 786-0; 39.6 µM (inactive) in the assay on MOLT-4. Besides, the GI50 in the assay on NCI/ADR-RES and in the assay on CAKI-1 was > 100 µM (inactive) throughout.

For the molecule `O=S(=O)(SC1=NCCN1)c1ccc2ccccc2c1`, the GI50 in the assay with LOX IMVI is 31.4 µM (inactive); in the assay with MCF7, 29.4 µM (inactive); in the assay with K562 it was 22.7 µM (inactive); with IGROV-1, 31 µM (inactive); with HL-60, 16.3 µM (inactive); in the assay on SN12C, 24.4 µM (inactive). In addition, the GI50 was 23.8 µM (inactive) in the assay with U-251; 89.1 µM (inactive) with TK-10; 29.4 µM (inactive) with UO-31; 92.7 µM (inactive) in the assay with A498; 23.8 µM (inactive) with SF-539; 24.3 µM (inactive) in the assay on RXF 393. Besides, the GI50 with M14 was 23.3 µM (inactive); in the assay on BT-549, 24.5 µM (inactive); with OVCAR-3, 27.5 µM (inactive); in the assay with HCC 2998, 20.6 µM (inactive); with 786-0, 28.1 µM (inactive); in the assay on MOLT-4, 24.8 µM (inactive). For the same molecule, the GI50 in the assay with NCI/ADR-RES was 21.8 µM (inactive); in the assay on CAKI-1, 95.1 µM (inactive).

Consider `O=C1N/C(=N/N=C\c2ccccc2)N/C1=C/c1ccccc1`, for which the GI50 in the assay with LOX IMVI was 35.9 µM (inactive); in the assay with MCF7, 31.5 µM (inactive); in the assay with K562, 21.3 µM (inactive); with IGROV-1 it was 24.8 µM (inactive); with HL-60, 34 µM (inactive); in the assay with SN12C it was 39.7 µM (inactive). Besides, the GI50 in the assay on U-251 is 33.7 µM (inactive); in the assay on TK-10, 38.5 µM (inactive); with UO-31, 41.9 µM (inactive); in the assay on A498, 30.9 µM (inactive); in the assay with SF-539 it was 20.5 µM (inactive); in the assay on RXF 393, 30 µM (inactive). For the same molecule, the GI50 with M14 is 45.4 µM (inactive); with BT-549, 22.9 µM (inactive); in the assay with OVCAR-3 it was 32.2 µM (inactive); with HCC 2998, 13.9 µM (inactive); in the assay with 786-0, 33.6 µM (inactive); in the assay on MOLT-4, 14.4 µM (inactive). Also, the figures for the GI50 with NCI/ADR-RES and in the assay with CAKI-1 were 22.9 µM (inactive) and 27.8 µM (inactive), respectively.

`COc1cc(Nc2nc3ccccc3n3cccc23)cc(OC)c1OC`: the GI50 in the assay on LOX IMVI is > 100 µM (inactive); in the assay with MCF7 it was > 100 µM (inactive); in the assay with K562 it was > 100 µM (inactive); in the assay with IGROV-1 it was 54.7 µM (inactive); in the assay on HL-60, 47.8 µM (inactive); in the assay on U-251, 47.8 µM (inactive). The GI50 in the assay on TK-10 is 36.3 µM (inactive); with UO-31, > 100 µM (inactive); in the assay with A498 it was > 100 µM (inactive); with SF-539, > 100 µM (inactive); with RXF 393, 17.5 µM (inactive); in the assay on M14, > 100 µM (inactive). In addition, the GI50 in the assay on BT-549 was 68.9 µM (inactive); in the assay with OVCAR-3 it was > 100 µM (inactive); with HCC 2998 it was > 100 µM (inactive); in the assay on 786-0 it was 94.8 µM (inactive); with MOLT-4, > 100 µM (inactive); with NCI/ADR-RES, > 100 µM (inactive). For the same molecule, in the assay with CAKI-1, the GI50 is > 100 µM (inactive).

For `Cn1nc2ccc([N+](=O)[O-])c(Cn3nnc4ccccc43)c2n1`, the GI50 was 82.8 µM (inactive) in the assay on LOX IMVI; > 100 µM (inactive) with MCF7; > 100 µM (inactive) with K562; > 100 µM (inactive) in the assay with IGROV-1; > 100 µM (inactive) with HL-60; > 100 µM (inactive) with SN12C. The GI50 with U-251, in the assay on TK-10, in the assay with UO-31, with A498, in the assay with SF-539 and with RXF 393 was > 100 µM (inactive) each time. Besides, the GI50 in the assay on M14, with BT-549, with OVCAR-3, in the assay with HCC 2998, with 786-0 and in the assay on MOLT-4 was > 100 µM (inactive) in each case. The GI50 in the assay with NCI/ADR-RES was 71 µM (inactive); in the assay with CAKI-1, > 100 µM (inactive).

As to `COc1ccc(-c2cn3c(nc4ccccc43)c(C)n2)cc1`, the GI50 with LOX IMVI is > 93.5 µM (inactive); in the assay with MCF7 it was 12.2 µM (inactive); in the assay on K562, > 100 µM (inactive); in the assay with IGROV-1 it was 28.8 µM (inactive); with HL-60, > 56.1 µM (inactive); in the assay with SN12C, > 77.1 µM (inactive). For the same molecule, the GI50 in the assay with U-251 was 50.4 µM (inactive); with TK-10, 58.9 µM (inactive); with UO-31, 13.7 µM (inactive); with A498, > 76.4 µM (inactive); with SF-539, 76.7 µM (inactive); with RXF 393 it was 44.5 µM (inactive). In addition, the GI50 is > 100 µM (inactive) with M14; 33.7 µM (inactive) in the assay on BT-549; 54.8 µM (inactive) in the assay on OVCAR-3; > 100 µM (inactive) in the assay on HCC 2998; 41 µM (inactive) in the assay with 786-0; > 100 µM (inactive) in the assay on MOLT-4. The GI50 with NCI/ADR-RES is 33.6 µM (inactive); in the assay with CAKI-1, 52.1 µM (inactive).

Regarding `CCn1c(-c2ccccc2)cs/c1=N\C(P(=O)(O)O)P(=O)(O)O`, the GI50 with LOX IMVI, in the assay on MCF7, with K562, in the assay with IGROV-1, with HL-60 and in the assay on U-251 was > 100 µM (inactive) each time. The GI50 in the assay with TK-10, in the assay with UO-31, in the assay with A498, in the assay on SF-539, in the assay with RXF 393 and in the assay with M14 was > 100 µM (inactive) throughout. Moreover, the GI50 in the assay with BT-549, in the assay with OVCAR-3, in the assay with HCC 2998, in the assay with 786-0, with MOLT-4 and with NCI/ADR-RES was > 100 µM (inactive) each time. Further, in the assay with CAKI-1, the GI50 was > 100 µM (inactive).

Take `COc1c(OC)c(O)c2c(=O)c(OC)c(-c3ccc4c(c3)OCO4)oc2c1O`: the GI50 in the assay on LOX IMVI was > 100 µM (inactive); in the assay on MCF7, > 100 µM (inactive); in the assay on K562 it was 85.3 µM (inactive); in the assay on IGROV-1, > 100 µM (inactive); in the assay on HL-60 it was 19.5 µM (inactive); in the assay on SN12C, > 100 µM (inactive). For the same molecule, the GI50 in the assay on U-251 is > 100 µM (inactive); in the assay with TK-10, > 100 µM (inactive); with UO-31, > 100 µM (inactive); with A498 it was > 100 µM (inactive); with SF-539, > 100 µM (inactive); with RXF 393, 91.4 µM (inactive). Besides, the GI50 with M14 is > 100 µM (inactive); in the assay with BT-549, > 100 µM (inactive); with OVCAR-3 it was > 100 µM (inactive); in the assay with HCC 2998, > 100 µM (inactive); in the assay with 786-0 it was > 100 µM (inactive); in the assay on MOLT-4, 40.1 µM (inactive). Further, the GI50 in the assay on NCI/ADR-RES and in the assay with CAKI-1 was > 100 µM (inactive) throughout.

`Cc1ccc2c(c1)c1ccc3c(c1n2C)C(=O)C=CC3=O`: the GI50 with LOX IMVI is 9.53 µM (inactive); with MCF7, 1.8 µM (inactive); in the assay with K562, 0.468 µM (active); in the assay on IGROV-1, 3.52 µM (inactive); with HL-60 it was 0.75 µM (active); in the assay on SN12C, 3.52 µM (inactive). For the same molecule, the GI50 in the assay on U-251 was > 7.31 µM (inactive); in the assay on TK-10 it was 2 µM (inactive); in the assay on UO-31, 1.41 µM (inactive); with A498, 2.88 µM (inactive); with SF-539 it was 2.32 µM (inactive); with RXF 393, 1.97 µM (inactive). The GI50 is 2.05 µM (inactive) in the assay with M14; 1.36 µM (inactive) in the assay with BT-549; 1.95 µM (inactive) with OVCAR-3; 9.77 µM (inactive) in the assay on HCC 2998; 1.95 µM (inactive) in the assay with 786-0; 0.76 µM (active) in the assay on MOLT-4. Further, the GI50 with NCI/ADR-RES is 2.96 µM (inactive); with CAKI-1 it was 2.36 µM (inactive).

As to `CC(C)OC(=O)NNc1c(Cl)cc(Cl)cc1Cl`, the GI50 in the assay on LOX IMVI is 76.7 µM (inactive); with MCF7 it was 40.3 µM (inactive); in the assay on K562, 55.6 µM (inactive); with IGROV-1 it was 37.3 µM (inactive); in the assay on HL-60, 68.9 µM (inactive); in the assay with SN12C, > 100 µM (inactive). For the same molecule, the GI50 in the assay with U-251 was > 100 µM (inactive); in the assay on TK-10 it was 37.7 µM (inactive); in the assay with UO-31 it was 55.8 µM (inactive); with A498, 30.5 µM (inactive); in the assay with SF-539, > 100 µM (inactive); with RXF 393, 26.2 µM (inactive). For the same molecule, the GI50 in the assay on M14 was 51.5 µM (inactive); in the assay on BT-549, 44.4 µM (inactive); in the assay on OVCAR-3 it was 56 µM (inactive); in the assay with HCC 2998, 89.9 µM (inactive); in the assay on 786-0, > 100 µM (inactive); in the assay with MOLT-4, 58.7 µM (inactive). Besides, the GI50 in the assay with NCI/ADR-RES is 67.9 µM (inactive); in the assay with CAKI-1, 58.6 µM (inactive).

A word on the GI50: it is the concentration that inhibits growth by half.
